# Results as given in patent publication US7772241B2, “Variolin derivatives and their use as antitumor agents” (Pharma Mar S.A., priority 2001, dated 2010).
# Read-outs that look alike come from different tables or passages of the source.
# Legend:
# K-562 = assay: Inhibition of cells growth by colorimetric (SRB) assay, K-562
# Source text: (§1) The finality of these assays is to interrupt the growth of a “in vitro” tumor cell culture by means a continued exhibition of the cells to the sample to be testing.
# (§2) This form of the assay employs 96 well cell culture microplates of 9 mm diameter (Faircloth, 1988; Mosmann, 1983). Most of the cell lines are obtained from American Type Culture Collection (ATCC) derived from different human cancer types.
# (§3) Cells are maintained in RPMI 1640 10% FBS, supplemented with 0.1 g/l penicillin and 0.1 g/l streptomycin sulphate and then incubated at 37° C., 5% CO2 and 98% humidity. For the experiments, cells were harvested from subconfluent cultures using trypsin and resuspended in fresh medium before plating.
# (§4) Cells are seeded in 96 well microtiter plates, at 5×10^3 cells per well in aliquots of 195 μl medium, and they are allowed to attach to the plate surface by growing in drug free medium for 18 hours. Afterward, samples are added in aliquots of 5 μl in a ranging from 10 to 10^−8 μg/ml, dissolved in DMSO/EtOH/PBS (0.5:0.5:99). After 48 hours exposure, the antitumor effect are measured by the SRB methodology: cells are fixed by adding 50 μl of cold 50% (wt/vol) trichloroacetic acid (TCA) and incubating for 60 minutes at 4° C. Plates are washed with deionized water and dried. One hundred μl of SRB solution (0.4% wt/vol in 1% acetic acid) is added to each microtiter well and incubated for 10 minutes at room temperature. Unbound SRB is removed by washing with 1% acetic acid. Plates are air dried and bound stain is solubilized with Tris buffer. Optical densities are read on a automated spectrophotometric plate reader at a single wavelength of 490 nm.
# (§5) The values for mean +/−SD of data from triplicate wells are calculated. Some parameters for cellular responses can be calculated: GI=growth inhibition, TGI=total growth inhibition (cytostatic effect) and LC=cell killing (cytotoxic effect).
# A-549 = assay: Inhibition of cells growth by colorimetric (SRB) assay, A-549
# Source text: as §1, §2, §3, §4, §5
# SK-MEL-28 = assay: Inhibition of cells growth by colorimetric (SRB) assay, SK-MEL-28
# Source text: as §1, §2, §3, §4, §5
# HT-29 = assay: Inhibition of cells growth by colorimetric (SRB) assay, HT-29
# Source text: as §1, §2, §3, §4, §5
# LoVo = assay: Inhibition of cells growth by colorimetric (SRB) assay, LoVo
# Source text: as §1, §2, §3, §4, §5
# LoVo-Dox = assay: Inhibition of cells growth by colorimetric (SRB) assay, LoVo-Dox
# Source text: as §1, §2, §3, §4, §5
# DU-145 = assay: Inhibition of cells growth by colorimetric (SRB) assay, DU-145
# Source text: as §1, §2, §3, §4, §5
# SK-BR-3 = assay: Inhibition of cells growth by colorimetric (SRB) assay, SK-BR-3
# Source text: as §1, §2, §3, §4, §5
# IGROV-1 = assay: Inhibition of cells growth by colorimetric (SRB) assay, IGROV-1
# Source text: as §1, §2, §3, §4, §5
# IGROV-ET = assay: Inhibition of cells growth by colorimetric (SRB) assay, IGROV-ET
# Source text: as §1, §2, §3, §4, §5
# SK-OV-3 = assay: Inhibition of cells growth by colorimetric (SRB) assay, SK-OV-3
# Source text: as §1, §2, §3, §4, §5
# PANC-1 = assay: Inhibition of cells growth by colorimetric (SRB) assay, PANC-1
# Source text: as §1, §2, §3, §4, §5
compound,measurement,setting,value
Cl.Nc1nccc(-c2c3c(N)ccnc3n3c(N)nccc23)n1 [Compound 91],TGI K-562,"K-562; SRB assay, 48 hours exposure",3.78E−06
same,GI50,"K-562; read-out: GI50 K-562, SRB assay, 48 hours exposure",1320 nM
same,CC50,"K-562; read-out: LC50 K-562, SRB assay, 48 hours exposure",24900 nM
same,TGI A-549,"A-549; SRB assay, 48 hours exposure",2.09E−06
same,GI50,"A-549; read-out: GI50 A-549, SRB assay, 48 hours exposure",1090 nM
same,CC50,"A-549; read-out: LC50 A-549, SRB assay, 48 hours exposure",8290 nM
same,TGI MEL-28,"SK-MEL-28; SRB assay, 48 hours exposure",5.10E−07
same,GI50,"SK-MEL-28; read-out: GI50 MEL-28, SRB assay, 48 hours exposure",180 nM
same,CC50,"SK-MEL-28; read-out: LC50 MEL-28, SRB assay, 48 hours exposure",1250 nM
same,TGI HT-29,"HT-29; SRB assay, 48 hours exposure",2.49E−06
same,GI50,"HT-29; read-out: GI50 HT-29, SRB assay, 48 hours exposure",1340 nM
same,CC50,"HT-29; read-out: LC50 HT-29, SRB assay, 48 hours exposure",24900 nM
same,TGI LOVO,"LoVo; SRB assay, 48 hours exposure",8.49E−07
same,GI50,"LoVo; read-out: GI50 LOVO, SRB assay, 48 hours exposure",201 nM
same,CC50,"LoVo; read-out: LC50 LOVO, SRB assay, 48 hours exposure",6820 nM
same,TGI LOVO-DOX,"LoVo-Dox; SRB assay, 48 hours exposure",1.86E−06
same,GI50,"LoVo-Dox; read-out: GI50 LOVO-DOX, SRB assay, 48 hours exposure",774 nM
same,CC50,"LoVo-Dox; read-out: LC50 LOVO-DOX, SRB assay, 48 hours exposure",7470 nM
same,TGI DU-145,"DU-145; SRB assay, 48 hours exposure",1.34E−06
same,GI50,"DU-145; read-out: GI50 DU-145, SRB assay, 48 hours exposure",336 nM
same,CC50,"DU-145; read-out: LC50 DU-145, SRB assay, 48 hours exposure",24900 nM
same,TGI SK-BR-3,"SK-BR-3; SRB assay, 48 hours exposure",6.45E−07
same,GI50,"SK-BR-3; read-out: GI50 SK-BR-3, SRB assay, 48 hours exposure",251 nM
same,CC50,"SK-BR-3; read-out: LC50 SK-BR-3, SRB assay, 48 hours exposure",1650 nM
same,TGI IGROV,"IGROV-1; SRB assay, 48 hours exposure",9.73E−07
same,GI50,"IGROV-1; read-out: GI50 IGROV, SRB assay, 48 hours exposure",241 nM
same,CC50,"IGROV-1; read-out: LC50 IGROV, SRB assay, 48 hours exposure",6020 nM
same,TGI IGROV-ET,"IGROV-ET; SRB assay, 48 hours exposure",1.98E−06
same,GI50,"IGROV-ET; read-out: GI50 IGROV-ET, SRB assay, 48 hours exposure",1160 nM
same,CC50,"IGROV-ET; read-out: LC50 IGROV-ET, SRB assay, 48 hours exposure",24900 nM
same,TGI SKOV-3,"SK-OV-3; SRB assay, 48 hours exposure",2.12E−06
same,GI50,"SK-OV-3; read-out: GI50 SKOV-3, SRB assay, 48 hours exposure",700 nM
same,CC50,"SK-OV-3; read-out: LC50 SKOV-3, SRB assay, 48 hours exposure",24900 nM
same,TGI PANC-1,"PANC-1; SRB assay, 48 hours exposure",2.44E−06
same,GI50,"PANC-1; read-out: GI50 PANC-1, SRB assay, 48 hours exposure",896 nM
same,CC50,"PANC-1; read-out: LC50 PANC-1, SRB assay, 48 hours exposure",16200 nM
Nc1nccc2c(-c3ccnc(Oc4ccccc4)n3)c3cccnc3n12 [Compound 78],GI50,"K-562; Homo sapiens, K562, 48 h, read-out: GI50 K-562, SRB assay, 48 hours exposure",5500 nM
same,CC50,"K-562; Homo sapiens, K562, 48 h, read-out: LC50 K-562, SRB assay, 48 hours exposure",28200 nM
same,TGI K-562,"K-562; SRB assay, 48 hours exposure",2.30E−05
same,GI50,"A-549; Homo sapiens, A549, 48 h, read-out: GI50 A-549, SRB assay, 48 hours exposure",737 nM
same,CC50,"A-549; Homo sapiens, A549, 48 h, read-out: LC50 A-549, SRB assay, 48 hours exposure",8010 nM
same,TGI A-549,"A-549; SRB assay, 48 hours exposure",1.68E−06
same,GI50,"SK-MEL-28; Homo sapiens, SK-MEL-28, 48 h, read-out: GI50 MEL-28, SRB assay, 48 hours exposure",717 nM
same,CC50,"SK-MEL-28; Homo sapiens, SK-MEL-28, 48 h, read-out: LC50 MEL-28, SRB assay, 48 hours exposure",7050 nM
same,TGI MEL-28,"SK-MEL-28; SRB assay, 48 hours exposure",1.78E−06
same,GI50,"HT-29; Homo sapiens, HT-29, 48 h, read-out: GI50 HT-29, SRB assay, 48 hours exposure",1340 nM
same,TGI HT-29,"HT-29; SRB assay, 48 hours exposure",2.82E−05
same,GI50,"LoVo; Homo sapiens, LoVo, 48 h, read-out: GI50 LOVO, SRB assay, 48 hours exposure",553 nM
same,CC50,"LoVo; Homo sapiens, LoVo, 48 h, read-out: LC50 LOVO, SRB assay, 48 hours exposure",5050 nM
same,TGI LOVO,"LoVo; SRB assay, 48 hours exposure",1.44E−06
same,GI50,"LoVo-Dox; Homo sapiens, 48 h, read-out: GI50 LOVO-DOX, SRB assay, 48 hours exposure",151 nM
same,CC50,"LoVo-Dox; Homo sapiens, 48 h, read-out: LC50 LOVO-DOX, SRB assay, 48 hours exposure",18200 nM
same,TGI LOVO-DOX,"LoVo-Dox; SRB assay, 48 hours exposure",1.86E−06
same,GI50,"DU-145; Homo sapiens, DU-145, 48 h, read-out: GI50 DU-145, SRB assay, 48 hours exposure",770 nM
same,CC50,"DU-145; Homo sapiens, DU-145, 48 h, read-out: LC50 DU-145, SRB assay, 48 hours exposure",28200 nM
same,TGI DU-145,"DU-145; SRB assay, 48 hours exposure",1.87E−06
same,GI50,"SK-BR-3; Homo sapiens, SK-BR-3, 48 h, read-out: GI50 SK-BR-3, SRB assay, 48 hours exposure",528 nM
same,CC50,"SK-BR-3; Homo sapiens, SK-BR-3, 48 h, read-out: LC50 SK-BR-3, SRB assay, 48 hours exposure",2490 nM
same,TGI SK-BR-3,"SK-BR-3; SRB assay, 48 hours exposure",1.15E−06
same,GI50,"IGROV-1; Homo sapiens, IGROV-1, 48 h, read-out: GI50 IGROV, SRB assay, 48 hours exposure",621 nM
same,CC50,"IGROV-1; Homo sapiens, IGROV-1, 48 h, read-out: LC50 IGROV, SRB assay, 48 hours exposure",4740 nM
same,TGI IGROV,"IGROV-1; SRB assay, 48 hours exposure",1.41E−06
same,GI50,"IGROV-ET; Homo sapiens, 48 h, read-out: GI50 IGROV-ET, SRB assay, 48 hours exposure",1080 nM
same,CC50,"IGROV-ET; Homo sapiens, 48 h, read-out: LC50 IGROV-ET, SRB assay, 48 hours exposure",14300 nM
same,TGI IGROV-ET,"IGROV-ET; SRB assay, 48 hours exposure",2.47E−06
same,GI50,"SK-OV-3; Homo sapiens, SK-OV-3, 48 h, read-out: GI50 SKOV-3, SRB assay, 48 hours exposure",784 nM
same,CC50,"SK-OV-3; Homo sapiens, SK-OV-3, 48 h, read-out: LC50 SKOV-3, SRB assay, 48 hours exposure",28200 nM
same,TGI SKOV-3,"SK-OV-3; SRB assay, 48 hours exposure",1.87E−06
same,GI50,"PANC-1; Homo sapiens, PANC-1, 48 h, read-out: GI50 PANC-1, SRB assay, 48 hours exposure",1340 nM
same,CC50,"PANC-1; Homo sapiens, PANC-1, 48 h, read-out: LC50 PANC-1, SRB assay, 48 hours exposure",28200 nM
same,TGI PANC-1,"PANC-1; SRB assay, 48 hours exposure",1.08E−05
